The record followed here is US20240279220A1, “INDOLE COMPOUNDS AND METHODS OF USE” (Genzyme Corporation, priority 2021, published 2024).

One experiment has as its system NBD1/3D. The experiment is described as follows: Aggregation analysis using differential static light scattering (DSLS), NBD1 thermal stability. It counts as binding, Human. To be noted: ΔTagg versus DMSO control; compound at 100 μM. In outline: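 Thermal stabilisation reported as ΔTagg, i.e. aggregation temperature relative to averaged DMSO wells. Tagg came from the inflection of differential static light scattering imaged 25–70 °C while NBD1 (0.2 mg/ml, Tris pH 7.6 buffer containing ATP, MgCl2, DTT, glycerol) was ramped 1 °C/min.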

The next experiment has as its target T1, CFTR (Homo sapiens, UniProt P13569, DEL508-508).
T1 construct: Primary human bronchial epithelial cells from a ΔF508 homozygous CF donor; host or cells: primary human bronchial epithelial cells (CF-HBE), ΔF508 homozygous donor
The experiment is described as follows: TECC24 recording of CFTR-mediated transepithelial chloride transport in ΔF508 homozygous CF-HBE cells. Type of experiment: cell-based. To be noted: 10 μM test agent, 48 hours incubation, AUC of forskolin-stimulated IEQ divided by vehicle AUC, primary CF-HBE cells. In a few lines:
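ΔF508 homozygous primary bronchial epithelia exposed to compound 48 h at 36.5 °C, then transepithelial voltage and resistance recorded in pH 7.4 buffer with benzamil (10 μM), forskolin (10 μM) stimulation and CFTRinh-172 (20 μM) stop. Equivalent Cl⁻ current AUC vs vehicle gives efficacy; EC50 fitted with Hill slope fixed at 1.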

T1 sequence (P13569 with tags, fused parts or gaps DEL508-508): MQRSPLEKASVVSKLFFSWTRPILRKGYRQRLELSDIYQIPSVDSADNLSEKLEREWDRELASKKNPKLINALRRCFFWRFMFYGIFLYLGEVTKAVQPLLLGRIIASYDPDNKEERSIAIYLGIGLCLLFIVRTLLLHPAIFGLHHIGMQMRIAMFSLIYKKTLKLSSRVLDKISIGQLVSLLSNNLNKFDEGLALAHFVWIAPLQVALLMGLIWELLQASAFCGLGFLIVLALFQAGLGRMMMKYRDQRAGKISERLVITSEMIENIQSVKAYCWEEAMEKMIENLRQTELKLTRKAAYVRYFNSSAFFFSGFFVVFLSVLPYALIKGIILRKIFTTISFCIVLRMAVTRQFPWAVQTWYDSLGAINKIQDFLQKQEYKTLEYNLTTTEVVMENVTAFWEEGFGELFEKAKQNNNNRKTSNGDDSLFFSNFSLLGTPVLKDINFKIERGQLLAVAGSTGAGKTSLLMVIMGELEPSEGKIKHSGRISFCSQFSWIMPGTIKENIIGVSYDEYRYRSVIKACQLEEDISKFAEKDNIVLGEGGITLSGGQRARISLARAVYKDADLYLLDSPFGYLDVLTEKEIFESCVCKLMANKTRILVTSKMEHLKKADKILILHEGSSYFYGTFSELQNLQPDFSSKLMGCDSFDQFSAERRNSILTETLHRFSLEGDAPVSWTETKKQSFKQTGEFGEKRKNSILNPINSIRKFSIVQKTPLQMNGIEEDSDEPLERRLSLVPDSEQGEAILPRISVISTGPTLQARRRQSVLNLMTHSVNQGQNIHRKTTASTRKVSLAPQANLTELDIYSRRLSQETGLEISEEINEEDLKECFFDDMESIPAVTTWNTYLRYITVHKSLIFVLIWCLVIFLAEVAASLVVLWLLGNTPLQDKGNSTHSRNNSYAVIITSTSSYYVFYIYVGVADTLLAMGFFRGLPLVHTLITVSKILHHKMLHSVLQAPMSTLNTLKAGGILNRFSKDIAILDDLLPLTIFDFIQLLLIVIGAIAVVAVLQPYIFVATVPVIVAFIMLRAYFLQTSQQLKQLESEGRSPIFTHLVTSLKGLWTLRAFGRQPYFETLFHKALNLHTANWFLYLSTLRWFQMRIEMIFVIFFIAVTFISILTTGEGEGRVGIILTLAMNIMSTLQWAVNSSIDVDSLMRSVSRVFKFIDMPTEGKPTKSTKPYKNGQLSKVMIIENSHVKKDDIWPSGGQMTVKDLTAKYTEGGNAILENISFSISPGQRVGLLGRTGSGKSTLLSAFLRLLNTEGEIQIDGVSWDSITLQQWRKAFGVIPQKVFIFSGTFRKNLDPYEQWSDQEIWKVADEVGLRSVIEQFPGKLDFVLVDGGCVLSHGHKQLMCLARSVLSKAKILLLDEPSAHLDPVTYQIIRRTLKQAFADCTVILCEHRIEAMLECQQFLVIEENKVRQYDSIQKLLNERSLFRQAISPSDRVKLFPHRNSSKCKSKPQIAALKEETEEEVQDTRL

`Cc1c(Oc2cc(-c3ncc(C(C)(O)c4cccc(CCC(=O)O)c4)[nH]3)c(F)cc2F)c(F)cc2[nH]ccc12` (centres unmarked) [Example 206, 3-(3-(1-(2-(2,4-difluoro-5-((6-fluoro-4-methyl-1H-indol-5-yl)oxy)phenyl)-1H-imidazol-5-yl)-1-hydroxyethyl)phenyl) propanoic acid]: the “DSLS NBD1/3D Human Stability delta-T (° C.) @ 100 (μM)” value (“DSLS NBD1/3D Human Stability delta-T” for short) in the experiment on NBD1/3D is on record as “B (B: 5-10° C.)”. In addition, the “TECC24 @ 10 μM over DMSO (AUC fold over DMSO)” value on CFTR is reported as “C (“C” refers to AUC @ 10 uM <= 4)”.

As for `CCC(CC)(c1cccc(CCC(=O)O)c1)c1cnc(-c2cc(Oc3c(F)cc4[nH]ccc4c3C)ccc2F)[nH]1` [Example 159, 3-(3-(3-(2-(2-fluoro-5-((6-fluoro-4-methyl-1H-indol-5-yl)oxy)phenyl)-1H-imidazol-5-yl)pentan-3-yl)phenyl)propanoic acid], the “DSLS NBD1/3D Human Stability delta-T” value with NBD1/3D is listed as “B (B: 5-10° C.)”. The “TECC24 @ 10 μM over DMSO (AUC fold over DMSO)” value on CFTR is reported as “B (“B” refers to AUC @10 uM between 4-12)”.

For the compound `Cc1nc(-c2cc(Oc3c(F)cc4[nH]ccc4c3F)ccc2F)[nH]c1C(O)c1cccc(CCC(=O)O)c1F` (single isomer, unassigned) [Example 180, 3-(3-((2-(5-((4,6-difluoro-1H-indol-5-yl)oxy)-2-fluorophenyl)-4-methyl-1H-imidazol-5-yl)(hydroxy)methyl)-2-fluorophenyl)propanoic acid], in the experiment with NBD1/3D, the “DSLS NBD1/3D Human Stability delta-T” value is “A (A: T ≥ 10° C.)”. Moreover, the “TECC24 @ 10 μM over DMSO (AUC fold over DMSO)” value on CFTR was “A (“A” refers to AUC @10 uM >= 12)”.

As to `CC(c1cnc(-c2cc(Oc3c(F)cc4[nH]ccc4c3F)ccc2F)[nH]1)c1cccc(CC(=O)O)c1F` (single isomer, unassigned) [Example 131A, 2-(3-(1-(2-(5-((4,6-difluoro-1H-indol-5-yl)oxy)-2-fluorophenyl)-1H-imidazol-5-yl)ethyl)-2-fluorophenyl)acetic acid], the “DSLS NBD1/3D Human Stability delta-T” value with NBD1/3D is “A (A: T ≥ 10° C.)”. In addition, the “TECC24 @ 10 μM over DMSO (AUC fold over DMSO)” value on CFTR was “A (“A” refers to AUC @10 uM >= 12)”.

On to `COCC(COC)(c1cccc(CCC(=O)O)c1)c1cnc(-c2cc(Oc3c(F)cc4[nH]ccc4c3F)ccc2F)[nH]1` [Example 171, 3-(3-(2-(2-(5-((4,6-Difluoro-1H-indol-5-yl)oxy)-2-fluorophenyl)-1H-imidazol-5-yl)-1,3-dimethoxypropan-2-yl)phenyl)propanoic acid], for which the “DSLS NBD1/3D Human Stability delta-T” value in the experiment on NBD1/3D is recorded as “A (A: T ≥ 10° C.)”. Further, the “TECC24 @ 10 μM over DMSO (AUC fold over DMSO)” value at CFTR was “C (“C” refers to AUC @ 10 uM <= 4)”.

In the case of `CC(C)(C)C(c1cccc(CCC(=O)O)c1)c1cnc(-c2cc(Oc3c(F)cc4[nH]ccc4c3F)ccc2F)[nH]1` (centres unmarked) [Example 277, 3-(3-(1-(2-(5-((4,6-difluoro-1H-indol-5-yl)oxy)-2-fluorophenyl)-1H-imidazol-5-yl)-2,2-dimethylpropyl)phenyl)propanoic acid], in the experiment with NBD1/3D, the “DSLS NBD1/3D Human Stability delta-T” value was “B (B: 5-10° C.)”. Besides, the “TECC24 @ 10 μM over DMSO (AUC fold over DMSO)” value at CFTR is “A (“A” refers to AUC @10 uM >= 12)”.

As for `CC(c1nnc(-c2cc(Oc3c(F)cc4[nH]ccc4c3F)ccc2F)[nH]1)c1cccc(CCC(=O)O)c1F` (single isomer, unassigned) [Example 252A, 3-(3-(1-(5-(5-((4,6-difluoro-1H-indol-5-yl)oxy)-2-fluorophenyl)-4H-1,2,4-triazol-3-yl)ethyl)-2-fluorophenyl)propanoic acid], in the experiment with NBD1/3D, the “DSLS NBD1/3D Human Stability delta-T” value is reported as “B (B: 5-10° C.)”. The “TECC24 @ 10 μM over DMSO (AUC fold over DMSO)” value at CFTR is “A (“A” refers to AUC @10 uM >= 12)”.

On to `[2H]C([2H])([2H])C(C#N)(c1cccc(CCC(=O)O)c1)c1cnc(-c2cc(Oc3c(F)c(F)c4[nH]ccc4c3F)ccc2F)[nH]1` (single isomer, unassigned) [Example 64A, 3-(3-(1-Cyano-1-(2-(2-fluoro-5-((4,6,7-trifluoro-1H-indol-5-yl)oxy)phenyl)-1H-imidazol-5-yl)ethyl-2,2,2-d3)phenyl)propanoic acid], for which the “DSLS NBD1/3D Human Stability delta-T” value with NBD1/3D is listed as “B (B: 5-10° C.)”. The “TECC24 @ 10 μM over DMSO (AUC fold over DMSO)” value at CFTR is given as “B (“B” refers to AUC @10 uM between 4-12)”.

With `O=C(O)CCc1cccc(Cc2c[nH]c(-c3cc(Oc4c(F)cc5[nH]ccc5c4F)ccc3F)n2)c1` [Example 118, 3-(3-((2-(5-((4,6-difluoro-1H-indol-5-yl)oxy)-2-fluorophenyl)-1H-imidazol-4-yl)methyl)phenyl)propanoic acid], the “DSLS NBD1/3D Human Stability delta-T” value in the experiment with NBD1/3D is given as “B (B: 5-10° C.)”. Also, the “TECC24 @ 10 μM over DMSO (AUC fold over DMSO)” value at CFTR is “B (“B” refers to AUC @10 uM between 4-12)”.

`CC(c1c[nH]c(-c2cc(Oc3c(F)cc4[nH]ccc4c3S(C)(=N)=O)ccc2F)n1)c1cccc(CCC(=O)O)c1F` (single isomer, unassigned) [Example 136C, 3-(2-fluoro-3-(1-(2-(2-fluoro-5-((6-fluoro-4-(S-methylsulfonimidoyl)-1H-indol-5-yl)oxy)phenyl)-1H-imidazol-4-yl)ethyl)phenyl)propanoic acid]: the “DSLS NBD1/3D Human Stability delta-T” value in the experiment on NBD1/3D is listed as “A (A: T ≥ 10° C.)”. Further, the “TECC24 @ 10 μM over DMSO (AUC fold over DMSO)” value on CFTR is reported as “A (“A” refers to AUC @10 uM >= 12)”.

Take `CP(C)(=O)c1c(Oc2ccc(F)c(-c3ncc(C4(c5cc(F)cc(CCC(=O)O)c5)CC(F)(F)C4)[nH]3)c2)c(F)cc2[nH]ccc12` [Example 80, 3-(3-(1-(2-(5-((4-(dimethylphosphoryl)-6-fluoro-1H-indol-5-yl)oxy)-2-fluorophenyl)-1H-imidazol-5-yl)-3,3-difluorocyclobutyl)-5-fluorophenyl)propanoic acid]: the “DSLS NBD1/3D Human Stability delta-T” value in the experiment with NBD1/3D is reported as “A (A: T ≥ 10° C.)”. Moreover, the “TECC24 @ 10 μM over DMSO (AUC fold over DMSO)” value at CFTR is on record as “C (“C” refers to AUC @ 10 uM <= 4)”.

In the case of `CC(c1c[nH]c(-c2cc(Oc3c(F)cc4[nH]ccc4c3S(C)(=O)=O)ccc2F)n1)c1cccc(CC(=O)O)c1F` (single isomer, unassigned) [Example 84, 2-(2-fluoro-3-(1-(2-(2-fluoro-5-((6-fluoro-4-(methylsulfonyl)-1H-indol-5-yl)oxy)phenyl)-1H-imidazol-4-yl)ethyl)phenyl)acetic acid], the “DSLS NBD1/3D Human Stability delta-T” value with NBD1/3D was “A (A: T ≥ 10° C.)”. The “TECC24 @ 10 μM over DMSO (AUC fold over DMSO)” value at CFTR is recorded as “B (“B” refers to AUC @10 uM between 4-12)”.

With `CS(=O)(=O)c1c(Oc2cccc(-c3ccn(Cc4cccc(CCC(=O)O)c4)n3)c2)ccc2[nH]ccc12` [Example 40], in the experiment on NBD1/3D, the “DSLS NBD1/3D Human Stability delta-T” value is “A (A: T ≥ 10° C.)”. The “TECC24 @ 10 μM over DMSO (AUC fold over DMSO)” value on CFTR is on record as “A (“A” refers to AUC @10 uM >= 12)”.
